The conditions of data set [1]: 101.33 kPa, Liquid; for viscosity: Capillary tube (Ostwald / Ubbelohde) method; for mass density: Vibrating tube method.
A short description of data set [2]: xn = mol fraction of the nth substance listed. Particulars: 101 kPa, Liquid, x1 = 1; for speed of sound: Frequency=2 MHz, Linear variable-path acoustic interferometer; for mass density: Vibrating tube method; for viscosity: Capillary tube (Ostwald / Ubbelohde) method.

The structures appear in SMILES notation. ± gives the expanded uncertainty stated by the source.

Regarding `NCCO` [2-aminoethan-1-ol], the viscosity (usually the internal friction of a fluid under shear) in data set [1] (298.15 K) is listed as 18.95 ± 0.58 mPa·s; in data set [1] (308.15 K) it was 11.96 ± 0.37 mPa·s; in data set [1] (318.15 K), 7.913 ± 0.24 mPa·s. The mass density (in general, mass per unit of volume) is listed as 1011.79 ± 0.24 kg/m3 in data set [1] (298.15 K), 1004.68 ± 0.23 kg/m3 in data set [1] (308.15 K) and 998.15 ± 0.23 kg/m3 in data set [1] (318.15 K).

As for `NCCN` [ethane-1,2-diamine], the viscosity in data set [1] (298.15 K) is reported as 1.276 ± 0.039 mPa·s; in data set [1] (308.15 K), 1.107 ± 0.034 mPa·s; in data set [1] (318.15 K), 0.9445 ± 0.029 mPa·s. Also, the mass density in data set [1] (298.15 K) was found to be 894.79 ± 0.23 kg/m3; in data set [1] (308.15 K) it was 885.63 ± 0.24 kg/m3; in data set [1] (318.15 K), 867.62 ± 0.24 kg/m3.

Consider `C1COCCO1` [1,4-dioxane], for which the viscosity in data set [1] (298.15 K) is listed as 1.178 ± 0.036 mPa·s; in data set [1] (308.15 K), 1.009 ± 0.031 mPa·s; in data set [1] (318.15 K), 0.8896 ± 0.027 mPa·s. Further, the results for the mass density in data set [1] (298.15 K), in data set [1] (308.15 K) and in data set [1] (318.15 K) were 1027.79 ± 0.11 kg/m3, 1016.78 ± 0.11 kg/m3 and 1005.24 ± 0.11 kg/m3, respectively.

Consider `C1COCCO1` [1,4-dioxane] + NCCN, for which the speed of sound – broadly, how fast a sound wave travels through the sample – in data set [2] (298.15 K) amounted to 1343.4 ± 1.4 m/s. Further, the mass density in data set [2] (298.15 K) was 1027.79 ± 0.11 kg/m3; in data set [2] (308.15 K), 1016.78 ± 0.11 kg/m3; in data set [2] (318.15 K) it was 1005.24 ± 0.11 kg/m3. For the same molecule, the viscosity in data set [2] (298.18 K) came out at 1.178 ± 0.036 mPa·s; in data set [2] (308.15 K), 1.009 ± 0.031 mPa·s; in data set [2] (318.15 K) it was 0.8896 ± 0.027 mPa·s.

In the case of `C1COCCO1` [1,4-dioxane] + NCCO, in data set [2] (298.15 K), the viscosity came out at 1.178 ± 0.036 mPa·s, the speed of sound was determined as 1343.4 ± 1.4 m/s and the mass density amounted to 1027.79 ± 0.11 kg/m3. In data set [2] (308.15 K), the viscosity worked out at 1.009 ± 0.031 mPa·s and the mass density was 1016.78 ± 0.11 kg/m3. Moreover, in data set [2] (318.15 K), the viscosity amounted to 0.8896 ± 0.027 mPa·s and the mass density came to 1005.24 ± 0.11 kg/m3.

With `ClCCCl` [1,2-dichloroethane], the viscosity in data set [1] (298.15 K) is on record as 0.7804 ± 0.024 mPa·s; in data set [1] (308.15 K) it was 0.6744 ± 0.021 mPa·s; in data set [1] (318.15 K), 0.5719 ± 0.017 mPa·s. For the same molecule, the mass density is given as 1246.37 ± 0.17 kg/m3 in data set [1] (298.15 K), 1231.21 ± 0.16 kg/m3 in data set [1] (308.15 K) and 1214.55 ± 0.16 kg/m3 in data set [1] (318.15 K).

On to `C1COCCO1` [1,4-dioxane] + ClCCCl, for which, in data set [2] (298.15 K), the viscosity was found to be 1.178 ± 0.036 mPa·s, the speed of sound amounted to 1343.4 ± 1.4 m/s and the mass density came to 1027.79 ± 0.11 kg/m3. In data set [2] (308.15 K), the viscosity is 1.009 ± 0.031 mPa·s and the mass density is 1016.78 ± 0.11 kg/m3. For the same molecule, in data set [2] (318.15 K), the viscosity is reported as 0.8896 ± 0.027 mPa·s and the mass density is 1005.24 ± 0.11 kg/m3.

Values taken from the NIST ThermoML archive (doi:10.1016/j.fluid.2015.06.041).
